For one assay, the system named is BChE. As to conditions: cited from earlier work.
The subject of assay [1] is mice with valium-impaired memory. As to conditions: radial arm maze; cited from earlier work.
For a further assay, the system named is AChE. The settings on record: cited from earlier work.
Assay [2] has as its target butyrylcholinesterase from equine serum (Equus caballus, UniProt P81908). Description: Butyrylcholinesterase. As to conditions: read-out: % Inhibition at 100 μg/mL (BChE). The format is biochemical.
Assay [3] has as its system β-amyloid-induced neurotoxicity. As to conditions: mice; cited from earlier work.
Assay [4] deals with neuronal cell death caused by oxidative stress. The settings on record: cited from earlier work.

SMILES strings stand for the structures.

Chain of butyrylcholinesterase from equine serum (P81908 whole entry): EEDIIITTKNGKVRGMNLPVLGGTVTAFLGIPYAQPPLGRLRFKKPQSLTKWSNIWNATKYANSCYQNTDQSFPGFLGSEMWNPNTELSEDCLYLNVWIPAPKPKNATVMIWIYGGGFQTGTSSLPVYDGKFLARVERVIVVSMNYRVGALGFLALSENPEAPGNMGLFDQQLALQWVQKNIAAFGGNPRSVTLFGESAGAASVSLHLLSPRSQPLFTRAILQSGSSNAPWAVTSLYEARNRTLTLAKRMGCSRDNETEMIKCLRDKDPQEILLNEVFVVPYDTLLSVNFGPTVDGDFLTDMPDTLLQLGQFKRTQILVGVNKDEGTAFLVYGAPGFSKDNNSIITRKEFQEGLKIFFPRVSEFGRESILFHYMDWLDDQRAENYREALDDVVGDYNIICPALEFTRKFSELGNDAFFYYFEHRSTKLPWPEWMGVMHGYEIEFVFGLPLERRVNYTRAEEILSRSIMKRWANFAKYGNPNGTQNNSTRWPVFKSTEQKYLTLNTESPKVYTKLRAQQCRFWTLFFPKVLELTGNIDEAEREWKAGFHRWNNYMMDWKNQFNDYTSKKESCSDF

As for `C/C=C(\CC[C@@H](C)[C@H]1CC[C@H]2[C@@H]3CC=C4C[C@@H](O)CC[C@]4(C)[C@H]3CC[C@]12C)C(C)C` [Fucosterol, fucosterol], the BChE inhibitory activity result in the assay with BChE was “weak BChE inhibitory activity”. As to `O=c1c(O)c(-c2ccc(O)cc2)oc2cc(O)cc(O)c12` [kaempferol], the “spatial learning and memory” value in assay [1] is “significantly improved”. As for `CC[C@H](CC[C@@H](C)[C@H]1CC[C@H]2[C@@H]3CC=C4C[C@@H](O)CC[C@]4(C)[C@H]3CC[C@]12C)C(C)C` [β-sitosterol], the “inhibitory effect on AChE” value with AChE is reported as “no appreciable inhibitory effect”. The “inhibitory effect on BChE” value in the assay with BChE is recorded as “no appreciable inhibitory effect”.

With `CNC(=O)Oc1ccc2c(c1)[C@]1(C)CCN(C)[C@@H]1N2C` [Physostigmine, physostigmine, reference compound], the inhibition at 100 µg/mL in assay [2] came out at 94.94 ± 0.04%. With `O=C(O)/C=C/c1ccc(O)cc1` [p-coumaric, p-coumaric acid], the β-amyloid-induced neurotoxicity entry in assay [3] is reported as “attenuate”.

`O=c1c(O[C@@H]2O[C@H](CO)[C@@H](O)[C@H](O)[C@H]2O)c(-c2ccc(O)cc2)oc2cc(O)cc(O)c12` [Compound 13, kaempferol 3-O-β-glucopyranoside]: the inhibition at 100 µg/mL in assay [2] worked out at 7.45 ± 0.72%. `COc1cc(/C=C/C(=O)O)ccc1O` [ferulic acid]: the β-amyloid-induced neurotoxicity result in assay [3] is on record as “attenuate”. As to `Cc1c(C)c2c(c(C)c1O)CC[C@@](C)(CCC[C@H](C)CCC[C@H](C)CCCC(C)C)O2` [α-Tocopherol, α-tocopherol], the “protection against neuronal cell death caused by oxidative stress” value in assay [4] is reported as “protective effects”.

The record behind these values is paper PMC9339560 (Journal of Food and Drug Analysis, 2016).
